Each structure is given as a SMILES string. Where only a bound is given, the exact number is not on record here.

By melting point is commonly meant the temperature of the solid-liquid transition. `COC(=O)c1ccc(C2=NOC(P(=O)(OC)OC)C2)cc1` (stereo not given) returned a melting point of 93 °C.

`Cc1ccc2nc(N3CCN(c4c(Cl)cncc4Cl)CC3)[nH]c2c1` came in with a melting point of 251 to 254 °C.

On to `CCCCc1c2c(nc3c1CCCC3)CCCC2`, for which the melting point fell in the range of 35 to 37 °C.

In turn, `O=C(O)C1=CCCN(Cc2ccc(Cl)c(Cl)c2)C1` yielded a melting point of 240 to 245 °C.

Regarding `COC(=O)NC1CCC(Nc2ncc3ncnc(Nc4ccc(F)c(Cl)c4)c3n2)CC1` (stereo not given), the melting point lay within 230 to 235 °C.

Turning to `Cc1ccnc(C(=O)c2ccc(F)cc2)c1`, the melting point lay in the range of 98 to 100 °C.

Take `COc1ccc(-n2nnnc2C(F)(F)F)cc1C1=CC2(CCCN(C(=O)c3ccccc3)C2)OC1` (stereo not given): the melting point fell in the range of 154 to 156 °C.

`COc1ccc(-c2nc(NC(=O)c3cccnc3)sc2-c2ccnc(NC(=O)c3cccnc3)c2)cc1`: the melting point lay within 229 to 232 °C.

With `O=C(O)CCc1nc(-c2ccccc2)cc2ccccc12`, the melting point is 160 °C.

In turn, `COc1ccc(Cn2c(N)c(C#N)c3c2CCCC3)cc1` showed a melting point of 122 to 126 °C.

For `O=C(c1ccccc1)N1CC=C(c2c[nH]c3ccc([N+](=O)[O-])cc23)CC1`, the melting point fell in the range of 280 to 282 °C.

With `CON(C)C(=O)c1c(COC2CCCCO2)noc1-c1ccccc1Cl` (stereo not given), the melting point is 51 to 56 °C.

The compound `Cc1cccn2c(=O)c(C(=O)NC3CCCC3)cnc12` had a melting point of 170 to 171 °C.

`COC(=O)C1CN(C(=O)c2cc(OC)c(OC)c(OC)c2)CCN1` (stereo not given) gave a melting point of 113 to 114 °C.

Compound `CN(C)Cc1ccc(SC2CCNCC2)cc1` gave a melting point of 52 °C.

Regarding `CC(=O)NC[C@H]1CN(c2ccc(N3CCC(COc4ccon4)CC3)c(F)c2)C(=O)O1`, the melting point fell in the range of 163 to 165 °C.

`CO[C@H]1CC[C@H]([C@H]2CC[C@H](CCC=O)CC2)CC1` came in with a melting point of 36 °C.

The compound `O=C(O)c1ccccc1OCC(F)(F)F` showed a melting point of 85 to 86.5 °C.

The compound `CC1Cc2cc3c(cc2C(c2ccc([N+](=O)[O-])cc2)=NN1c1nccs1)OCO3` (stereo not given) showed a melting point of 145 to 150 °C.

In turn, `Fc1cccc(F)c1-c1nc(C(F)(F)F)n(-c2ccccc2C(F)(F)F)n1` displayed a melting point of 90 °C.

`CC(=O)OCCOCn1c(=O)sc2c(=O)[nH]c(N)nc21` came in with a melting point of 173 to 176 °C.

Turning to `CCCCc1nn(C(CC)c2ccccc2)c(=O)n1Cc1ccc(-c2ccccc2-c2nnn[nH]2)cc1` (stereo not given), the melting point lay in the range of 72 to 75 °C.

`COc1ccc(Nc2ccn(C(C)=O)n2)cc1`: the melting point was 123 to 124 °C.

As for `Cc1ccnc(-c2c(C)noc2C)c1OC1SCC(O)C(O)C1O` (stereo not given), the melting point was 70 to 100 °C.

Regarding `O=C1Nc2ccccc2C12COc1cc3nccnc3cc12` (stereo not given), the melting point was 206 to 207 °C.

For `O=C(Nc1c(C(O)(C(F)(F)F)C(F)(F)F)ccc2ccccc12)c1ccccc1Cl`, the melting point is 209 to 211 °C.

`CS(=O)(=O)c1ccc(-c2oncc2C(=O)C2CC2)cc1Cl` came in with a melting point of 148 to 150 °C.

`COC1=c2ccccc2=c2ccc(Cl)cc2=C(c2ccccc2F)N1` had a melting point of 136 to 138 °C.

`COC(=O)N(CCO)c1ccc(OCc2nc3ccccc3s2)cc1C` registered a melting point of 109 to 110 °C.

Take `CCOC(=O)c1cc2cc(-c3ccc(NC(C)=O)cc3)ccc2o1`: the melting point fell in the range of 174 to 176 °C.

With `Cc1cc2c(cc1O)OC[C@@H](N1CCC(O)(c3ccc(F)cc3)CC1)[C@H]2O` (relative stereo), the melting point was 174 °C.

Compound `O=C(Nc1ccc(-n2nc(C(F)(F)F)cc2C(F)(F)F)cc1)c1ccc(-n2cccc2)cc1` gave a melting point of 249 to 252 °C.

`CC(C)(CO)CNC(=O)c1nn(C2CCCCO2)cc1NC(=O)c1ccccn1` (stereo not given) showed a melting point of 189 to 190 °C.

In turn, `Fc1cccc(Cl)c1-c1c(Cl)cc(-c2ncccn2)nc1Cl` returned a melting point of 147 °C.

The compound `CCc1nc(=O)c(CCC(=O)O)c(C)n1Cc1ccc(-c2ccccc2-c2nnn[nH]2)cc1` came in with a melting point of 317 to 322 °C.

The compound `CN(C)C1CCCC1Cc1cccc(-c2cccc(N)n2)c1` (stereo not given) showed a melting point of 60 to 80 °C.

Turning to `Cc1noc(-c2ccc(-c3cscn3)cc2)c1-c1ccc(S(N)(=O)=O)cc1`, the melting point came to 236 °C.

With `O=c1c2ccccc2[nH]c2c(OCCCCBr)cccc12`, the melting point lay within 180 to 181 °C.

Consider `COc1cc2c(CC#N)c(Br)[nH]c2cc1Br`, for which the melting point fell in the range of 169 to 171 °C.

On to `CCN(Cc1ccccc1)C(=O)Cc1c(-c2ccc(OC)cc2)nc2cc(C)ccn12`, for which the melting point is 175 to 178 °C.

As to `CCCC(=NO)c1ccc(OCOC)cc1`, the melting point is 74 to 76 °C.

In turn, `Fc1ccc2[nH]c3c(ccc4cc[nH]c43)c2c1` registered a melting point above 250 °C.

In turn, `CC1CN(c2n[nH]c(-c3ccc(Cl)cc3)c2-c2ccncc2)CC(C)N1` (stereo not given) gave a melting point of 236 to 238 °C.

`CC(=O)/C(=C(/Br)I)c1ccccc1`: the melting point was 53 to 55 °C.

Compound `CC(C)(C)C(NC(=O)Cc1ccc2ccccc2c1)NC(=NC#N)Nc1cccc2ncccc12` (stereo not given) had a melting point of 200 to 201 °C.

`N#CCC(=C(C#N)C#N)c1ccccc1` displayed a melting point of 92 to 98 °C.

As for `COc1ccc(CNc2ccccc2C)cc1O`, the melting point lay within 104 to 105 °C.

The compound `CSc1nc(SCc2ccccc2)n[nH]1` had a melting point of 80 to 82 °C.

`COC(=O)c1nc2nccc(S)n2n1`: the melting point was 206 °C.

Compound `COc1ccc(NC(=O)c2ccccc2OC)cc1` had a melting point of 49.5 to 51.2 °C.

`CC1(C)CN=C2N(C1)c1ccc(C#N)cc1C21OCCCO1` yielded a melting point of 178 to 184 °C.

`COc1cc2c(cc1OC)CCCC(C(=O)N1CCN(Cc3cc(OC)c(OC)c(OC)c3)CC1CN(C)C)=C2` (stereo not given) registered a melting point of 167 to 169 °C.

With `O=[N+]([O-])c1cc(CCC(O)=S)cc(O)c1O`, the melting point fell in the range of 91 to 93 °C.

`O=C(NCC(F)(F)F)C1(CCCCN2CCN(c3ccc4cccc(Cl)c4n3)CC2)c2ccccc2Oc2ccccc21` had a melting point of 68 °C.

For the compound `O=C(C1=Cc2ccccc2Oc2ccccc21)N1CCCCC1`, the melting point lay within 127 to 128 °C.

Take `Clc1nnc(CN2CC3(COc4cc5c(cc43)OCO5)c3ccccc32)s1` (stereo not given): the melting point is 194 to 197 °C.

Consider `CC(=O)CC(=O)Nc1cccc(NC(C)=O)c1`, for which the melting point is 107 °C.

`COc1cccc(NCc2sccc2S(=O)(=O)Nc2onc(C)c2Br)c1`: the melting point was 70 to 73 °C.

On to `CCCOc1ccccc1C1C(C(=O)OCC)=C(CCC)Nc2n[nH]cc21` (stereo not given), for which the melting point was determined as 205 °C.

`Cc1ccc(S(=O)(=O)Nc2ccccc2CCC(=O)c2cnc3sc(C)c(C)n23)cc1` returned a melting point of 168 to 169 °C.

Take `CNC(=O)c1ccccc1Nc1nc(Nc2cc3c(cc2OC)CCOC(=O)N3C)ncc1Br`: the melting point lay within 251 to 253 °C.

Regarding `O=C(C=Cc1ccc(O)c(O)c1)C=Cc1ccc(O)c(O)c1`, the melting point was in the range of 221 to 223 °C.

With `CS(=O)c1ccc(CSc2nnc(-c3ccc4ncsc4c3)o2)cc1C(F)(F)F` (stereo not given), the melting point lay within 179 to 180 °C.

Take `CC(Oc1ccc(Cl)cc1)c1ccnc2ncnn12` (stereo not given): the melting point was in the range of 98 to 99 °C.

For `Cc1c(C)c2c(c(C)c1Br)C(=O)C(C)(C)O2`, the melting point was 92 to 93 °C.

(Values after a melting point compilation (Tetko et al.; mined from patent text by program, amines drawn as free bases though some values may be those of a salt).)
